Results: the NIST ThermoML archive (doi:10.1016/j.jct.2016.10.033)

Experiment: xn = mol fraction of the nth substance listed
Details: 103 kPa, Liquid, Vibrating tube method

C=C[Si](OC)(OC)OC [trimethoxy(vinyl)silane] + CO[Si](C)(OC)c1ccccc1
mass density [kg/m3]
Details	298.15 K	303.15 K	308.15 K	313.15 K	318.15 K
x2 = 0	965.69	960.02	954.26	948.47	942.63
x2 = 0.05	968.08	962.41	956.71	950.99	945.24
x2 = 0.1	970.32	964.72	959.1	953.45	947.77
x2 = 0.1499	972.48	966.94	961.39	955.8	950.2
x2 = 0.2	974.57	969.11	963.63	958.1	952.57
x2 = 0.2501	976.61	971.22	965.8	960.36	954.9
x2 = 0.2999	978.59	973.25	967.91	962.52	957.14
x2 = 0.35	980.49	975.22	969.93	964.61	959.27
x2 = 0.4001	982.35	977.14	971.9	966.65	961.37
x2 = 0.4501	984.15	978.99	973.81	968.61	963.4
x2 = 0.5	985.89	980.79	975.67	970.52	965.37
x2 = 0.5499	987.58	982.53	977.46	972.37	967.27
x2 = 0.6	989.22	984.22	979.2	974.17	969.12
x2 = 0.6499	990.82	985.86	980.89	975.91	970.93
x2 = 0.7	992.37	987.46	982.54	977.6	972.65
x2 = 0.75	993.89	989.02	984.15	979.26	974.36
x2 = 0.8001	995.35	990.53	985.7	980.86	976.01
x2 = 0.8498	996.76	991.99	987.21	982.41	977.61
x2 = 0.8999	998.15	993.42	988.68	983.93	979.18
x2 = 0.9499	999.49	994.81	990.11	985.41	980.69

CCO[Si](C)(C)OCC [dimethyldiethoxysilane] + CO[Si](C)(OC)c1ccccc1
mass density [kg/m3]
Details	298.15 K	303.15 K	308.15 K	313.15 K	318.15 K
x2 = 0	835.43	830.05	824.66	819.23	813.79
x2 = 0.05	844.52	839.2	833.85	828.47	823.07
x2 = 0.1001	853.53	848.24	842.96	837.62	832.3
x2 = 0.1499	862.39	857.16	851.93	846.65	841.38
x2 = 0.2002	871.25	866.06	860.86	855.62	850.38
x2 = 0.2501	879.99	874.82	869.69	864.51	859.35
x2 = 0.3001	888.58	883.47	878.37	873.21	868.08
x2 = 0.3499	897.15	892.09	887.07	881.99	876.96
x2 = 0.4	905.59	900.56	895.53	890.45	885.39
x2 = 0.4499	914.02	909.03	904.09	899.09	894.16
x2 = 0.5	922.3	917.36	912.44	907.47	902.55
x2 = 0.55	930.51	925.59	920.71	915.78	910.89
x2 = 0.5999	938.58	933.7	928.83	923.93	919.05
x2 = 0.65	946.66	941.82	936.99	932.13	927.3
x2 = 0.6999	954.61	949.79	944.98	940.14	935.33
x2 = 0.75	962.69	957.72	952.94	948.14	943.35
x2 = 0.8	970.29	965.52	960.76	955.98	951.2
x2 = 0.8498	978.01	973.29	968.57	963.83	959.11
x2 = 0.9	985.69	980.99	976.3	971.58	966.88
x2 = 0.95	993.25	988.58	983.91	979.23	974.53

CO[Si](C)(C)OC [dimethoxydimethylsilane] + CO[Si](C)(OC)c1ccccc1
mass density [kg/m3]
Details	298.15 K	303.15 K	308.15 K	313.15 K	318.15 K
x2 = 0	857.9	852.05	846.16	840.22	834.24
x2 = 0.0501	867.91	862.2	856.41	850.61	844.75
x2 = 0.1001	877.51	871.89	866.22	860.51	854.76
x2 = 0.15	886.69	881.2	875.64	870.06	864.46
x2 = 0.2	895.55	890.16	884.71	879.29	873.78
x2 = 0.25	904.02	898.68	893.28	887.86	882.41
x2 = 0.2999	912.17	906.9	901.56	896.2	890.82
x2 = 0.3499	920.17	914.94	909.7	904.52	899.24
x2 = 0.4001	927.65	922.49	917.31	912.1	906.86
x2 = 0.4501	934.96	929.92	924.83	919.75	914.64
x2 = 0.5001	942	936.98	931.93	926.87	921.78
x2 = 0.55	948.79	943.85	938.85	933.86	928.85
x2 = 0.6	955.36	950.46	945.52	940.57	935.6
x2 = 0.6499	961.69	956.82	951.89	946.97	942.03
x2 = 0.6999	967.83	962.98	958.11	953.22	948.33
x2 = 0.75	973.78	968.97	964.15	959.31	954.48
x2 = 0.7997	979.5	974.72	969.93	965.13	960.32
x2 = 0.8499	985.08	980.34	975.58	970.81	966.02
x2 = 0.8999	990.48	985.77	981.05	976.33	971.59
x2 = 0.95	995.72	991.04	986.35	981.66	976.95
